Measurements reported in patent US9540381B2, “Anti-angiogenesis compound, intermediate and use thereof” (Guangzhou KangRui Biological Pharmaceutical Technology Co., …, priority 2013, dated 2017).

Key:
[1] = target: T1, FGFR2 (Homo sapiens, UniProt P21802); assay: Inhibition specificity, FGFR2; assay type: biochemical; conditions: 5000 nM, average of two tests; read-out: Average Inhibition Rate (%) FGFR2
T1 construct: purchased CARNA

[2] = target: T2, SRC (Homo sapiens, UniProt P12931); assay: Inhibition specificity, SRC; assay type: biochemical; conditions: 5000 nM, average of two tests; read-out: Average Inhibition Rate (%) SRC
T2 construct: purchased INVITROGEN
T2 sequence (P12931 whole entry, species assumed): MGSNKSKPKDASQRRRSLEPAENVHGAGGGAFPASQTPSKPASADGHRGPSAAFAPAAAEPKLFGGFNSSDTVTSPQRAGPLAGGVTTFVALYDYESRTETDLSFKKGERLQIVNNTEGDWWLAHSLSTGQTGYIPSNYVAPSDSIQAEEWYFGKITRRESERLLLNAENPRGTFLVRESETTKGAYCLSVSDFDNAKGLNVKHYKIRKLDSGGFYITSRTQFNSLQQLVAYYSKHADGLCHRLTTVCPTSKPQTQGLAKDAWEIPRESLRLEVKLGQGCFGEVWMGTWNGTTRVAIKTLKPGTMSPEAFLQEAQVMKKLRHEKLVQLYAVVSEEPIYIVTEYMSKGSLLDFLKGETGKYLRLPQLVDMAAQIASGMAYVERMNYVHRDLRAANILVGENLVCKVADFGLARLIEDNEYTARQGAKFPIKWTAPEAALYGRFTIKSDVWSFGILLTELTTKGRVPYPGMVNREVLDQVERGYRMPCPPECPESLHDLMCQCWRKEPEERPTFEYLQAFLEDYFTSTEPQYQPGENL

[3] = test system: vessel development of the FLK1-GFP transgenic danio rerio; assay: Inhibition test on vascular development of Danio rerio; assay type: in vivo; conditions: for inhibition at 0.1 µM / inhibition at 1 µM / inhibition at 5 µM / inhibition at 10 µM / inhibition at 20 µM / inhibition at 40 µM / inhibition at 100 µM: Danio rerio, after 24 hours, n = 5, read-out: inhibition rate on the development of vertebral vessel; for inhibition at 0.1 µM: 100 nM; for inhibition effect on the vessel development of the danio rerio (in words): Table 1 and FIG. 7
Experimental: Female fish can spawn 200-300 […], and the fertilization and embryonic development processes are conducted in vitro. They can grow up within 24 hours, and the embryo is transparent, which is suitable for observing the change of intracorporal organs and tissues. These characteristics make the danio rerio become to be one of the five fish laboratory animals accepted by the international organization for standardization. Currently, the danio rerio is widely used in human disease studies, especially used in cardiovascular system studies. The danio rerio can be used for screening the influence of small molecular compounds on angiogenesis. Experimental Method: This experiment uses FLK1-GFP transgenic danio rerio as an animal model which is generally used for screening the influence of compounds on angiogenesis. Vessel can be in vivo observed under fluorescence microscope (Suk-Won Jin, 2005, Development). The selected embryo of the postnatal FLK1-GFP transgenic danio rerio was placed into a culture dish and incubated for 3-5 days in an incubator at 28° C. […] Examine the developmental condition of the vertebral vessel after 24 hours and take photo by use of the fluorescence microscope.

[4] = target: T3, CDK2 (Homo sapiens, UniProt P24941); assay: Inhibition specificity, CDK2; assay type: biochemical; conditions: 5000 nM, average of two tests; read-out: Average Inhibition Rate (%) CDK2
T3 construct: purchased UPSTATE

[5] = target: T4, PDGFR-β (Homo sapiens, UniProt P09619); assay: Kinase inhibition dosage effect, PDGFR-β; assay type: biochemical; conditions: for IC50: [ATP] 30 μM, 3 hr; for Hill PDGFR-β: dose-effect curve fit
T4 construct: purchased Upstate
T4 sequence (P09619 33-1106, species assumed): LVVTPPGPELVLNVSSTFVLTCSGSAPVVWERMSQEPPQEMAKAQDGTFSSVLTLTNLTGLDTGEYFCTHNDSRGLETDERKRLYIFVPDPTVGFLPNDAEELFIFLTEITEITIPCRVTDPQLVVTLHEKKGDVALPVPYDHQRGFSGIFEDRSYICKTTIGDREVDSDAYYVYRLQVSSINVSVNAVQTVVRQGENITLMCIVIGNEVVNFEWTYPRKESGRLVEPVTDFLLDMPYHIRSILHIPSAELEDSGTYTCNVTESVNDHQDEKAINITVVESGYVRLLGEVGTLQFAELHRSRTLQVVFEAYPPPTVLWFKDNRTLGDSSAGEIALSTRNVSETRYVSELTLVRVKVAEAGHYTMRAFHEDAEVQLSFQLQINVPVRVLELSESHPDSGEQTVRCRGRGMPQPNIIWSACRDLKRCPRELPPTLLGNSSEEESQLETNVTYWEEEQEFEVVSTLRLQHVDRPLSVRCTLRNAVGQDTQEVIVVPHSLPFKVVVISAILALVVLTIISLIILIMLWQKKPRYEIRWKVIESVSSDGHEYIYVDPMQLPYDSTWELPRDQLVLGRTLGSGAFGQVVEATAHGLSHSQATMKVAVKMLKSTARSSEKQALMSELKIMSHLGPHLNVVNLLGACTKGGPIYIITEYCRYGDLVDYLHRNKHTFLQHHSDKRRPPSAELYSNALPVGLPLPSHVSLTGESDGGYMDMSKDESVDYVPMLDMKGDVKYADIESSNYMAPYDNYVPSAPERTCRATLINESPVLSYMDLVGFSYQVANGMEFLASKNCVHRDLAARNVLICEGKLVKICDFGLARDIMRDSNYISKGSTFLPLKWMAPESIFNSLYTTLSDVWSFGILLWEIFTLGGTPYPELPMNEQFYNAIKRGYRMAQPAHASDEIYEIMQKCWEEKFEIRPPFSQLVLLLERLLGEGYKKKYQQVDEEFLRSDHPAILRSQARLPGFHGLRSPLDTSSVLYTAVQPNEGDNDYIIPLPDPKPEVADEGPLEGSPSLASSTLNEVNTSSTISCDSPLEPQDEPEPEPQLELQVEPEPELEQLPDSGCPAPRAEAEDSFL

[6] = target: T5, PI3K-α (Homo sapiens, UniProt P42336); assay: Inhibition specificity, PI3K-α (ADP-Glo); assay type: biochemical; conditions: 5000 nM, average of two tests; read-out: Average Inhibition Rate (%) PI3K-α
T5 construct: purchased INVITROGEN

[7] = target: T6, BRAF (Homo sapiens, UniProt P15056); assay: Inhibition specificity, BRAF; assay type: biochemical; conditions: 5000 nM, average of two tests; read-out: Average Inhibition Rate (%) BRAF
T6 construct: purchased UPSTATE

[8] = target: T7, MAPK3 (Homo sapiens, UniProt P27361); assay: Inhibition specificity, MAPK3; assay type: biochemical; conditions: 5000 nM, average of two tests; read-out: Average Inhibition Rate (%) MAPK3
T7 construct: purchased INVITROGEN
T7 sequence (P27361 whole entry): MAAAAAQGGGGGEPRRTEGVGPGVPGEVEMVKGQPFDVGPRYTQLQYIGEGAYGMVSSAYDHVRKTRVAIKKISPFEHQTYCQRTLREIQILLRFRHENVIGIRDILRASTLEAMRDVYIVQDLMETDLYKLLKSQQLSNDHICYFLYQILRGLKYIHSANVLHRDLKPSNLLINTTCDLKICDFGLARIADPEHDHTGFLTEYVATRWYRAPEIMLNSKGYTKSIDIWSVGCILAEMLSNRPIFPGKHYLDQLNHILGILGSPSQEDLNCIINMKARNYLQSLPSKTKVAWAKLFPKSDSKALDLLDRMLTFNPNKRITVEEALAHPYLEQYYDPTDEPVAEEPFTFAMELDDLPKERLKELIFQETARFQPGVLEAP

[9] = target: T8, VEGFR2 (Homo sapiens, UniProt P35968); assay: In vitro inhibition test on VEGFR2 in HUVECs (anti-phosphorylated VEGFR2 blot); assay type: cell-based; conditions: 10 nM, 100 nM and 1 μM, 50 ng/ml VEGF
T8 construct: endogenous in cells; host or cells: primary HUVECs P3-P5
T8 sequence (P35968 20-1356): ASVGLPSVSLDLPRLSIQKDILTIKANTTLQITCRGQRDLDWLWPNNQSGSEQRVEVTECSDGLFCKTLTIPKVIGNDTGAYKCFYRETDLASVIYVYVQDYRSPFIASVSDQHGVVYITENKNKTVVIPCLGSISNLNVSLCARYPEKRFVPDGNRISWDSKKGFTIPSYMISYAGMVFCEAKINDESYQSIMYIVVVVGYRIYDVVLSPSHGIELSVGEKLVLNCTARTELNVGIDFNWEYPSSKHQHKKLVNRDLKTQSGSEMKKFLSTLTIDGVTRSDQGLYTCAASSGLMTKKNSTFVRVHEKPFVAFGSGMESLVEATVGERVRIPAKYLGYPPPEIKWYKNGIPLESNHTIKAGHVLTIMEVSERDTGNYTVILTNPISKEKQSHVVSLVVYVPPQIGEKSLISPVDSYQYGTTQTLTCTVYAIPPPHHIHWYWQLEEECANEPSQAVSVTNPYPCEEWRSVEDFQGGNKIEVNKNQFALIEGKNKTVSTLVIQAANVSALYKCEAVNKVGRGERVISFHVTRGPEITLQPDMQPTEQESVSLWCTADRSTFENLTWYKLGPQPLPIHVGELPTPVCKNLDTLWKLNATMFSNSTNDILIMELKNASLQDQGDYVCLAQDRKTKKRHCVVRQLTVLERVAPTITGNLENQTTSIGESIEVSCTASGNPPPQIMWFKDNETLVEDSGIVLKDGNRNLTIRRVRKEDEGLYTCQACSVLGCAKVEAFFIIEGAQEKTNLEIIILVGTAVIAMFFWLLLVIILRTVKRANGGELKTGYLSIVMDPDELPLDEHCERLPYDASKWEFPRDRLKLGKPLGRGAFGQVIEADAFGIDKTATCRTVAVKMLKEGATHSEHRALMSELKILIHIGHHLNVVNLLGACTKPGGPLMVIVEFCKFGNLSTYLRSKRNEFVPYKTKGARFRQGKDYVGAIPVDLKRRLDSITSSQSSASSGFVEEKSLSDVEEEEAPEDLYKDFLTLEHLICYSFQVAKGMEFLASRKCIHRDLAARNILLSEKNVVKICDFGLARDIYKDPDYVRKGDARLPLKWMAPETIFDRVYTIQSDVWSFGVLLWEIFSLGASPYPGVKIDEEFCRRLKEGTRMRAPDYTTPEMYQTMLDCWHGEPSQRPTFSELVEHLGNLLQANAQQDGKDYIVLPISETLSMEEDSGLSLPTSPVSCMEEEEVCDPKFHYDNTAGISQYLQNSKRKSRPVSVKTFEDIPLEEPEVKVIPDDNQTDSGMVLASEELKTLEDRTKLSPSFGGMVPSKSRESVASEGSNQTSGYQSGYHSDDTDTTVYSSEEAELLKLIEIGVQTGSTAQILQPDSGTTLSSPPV
Experimental: The experimental method of detecting the inhibition of the compounds of the present invention on VEGFR2 kinase is as follows:
1) The primary cultured human umbilical vein endothelial cells (HUVECs) P3-P5 were transferred to 6 well plate, 2×10^5 cells per well;
2) compounds 2-1, 2-2 and 2-4 of the present invention (the concentrations are 10 nM, 100 nM and 1 μM for each compound) were added when the cells grow to 70-80%, VEGF was a control, incubation for 30 min;
3) 50 ng/ml VEGF (cell Signaling company, US) was added, stimulating for 10 min;
4) nondenature lysis buffer was added to terminate the reaction, and cell lysis buffer was collected to carry out protein quantification;
5) SDS-PAGE electrophoresis, transfer to nitrocellulose membrane, the membrane was cut off and sealed in phosphate tween buffer, TTBS buffer (Tris-buffered saline 0.01% Tween 20, cell Signaling company, US, PH8.0) formulated from 5% skimmed milk for 2 hours; 6) wash the membrane, seal at 4° C. overnight by use of an anti-phosphorylated VEGFR2 antibody (1:1000 dilution, cell Signaling company, US); 7) on the second day after washing membrane, horse radish peroxidase marked goat anti-rabbit second antibody (cell Signaling company, US) was incubated with the membrane at room temperature for 1 hour; 8) develop with chemiluminescence kit (Millipore company) after washing membrane, and take photos.

[10] = target: T9, ROCK1 (Homo sapiens, UniProt Q13464); assay: Inhibition specificity, ROCK1; assay type: biochemical; conditions: 5000 nM, average of two tests; read-out: Average Inhibition Rate (%) ROCK1
T9 construct: purchased CARNA

[11] = target: T10, GSK-3-β (Homo sapiens, UniProt P49841); assay: Inhibition specificity, GSK-3-β; assay type: biochemical; conditions: 5000 nM, average of two tests; read-out: Average Inhibition Rate (%) GSK-3-β
T10 construct: purchased UPSTATE

[12] = target: T11, PKC-α (Homo sapiens, UniProt P17252); assay: Inhibition specificity, PKC-α; assay type: biochemical; conditions: 5000 nM, average of two tests; read-out: Average Inhibition Rate (%) PKC-α
T11 construct: purchased INVITROGEN

[13] = target: T12, AURORA-B (Homo sapiens, UniProt Q96GD4); assay: Inhibition specificity, AURORA-B; assay type: biochemical; conditions: 5000 nM, average of two tests; read-out: Average Inhibition Rate (%) AURORA-B
T12 construct: purchased CARNA
T12 sequence (Q96GD4 whole entry): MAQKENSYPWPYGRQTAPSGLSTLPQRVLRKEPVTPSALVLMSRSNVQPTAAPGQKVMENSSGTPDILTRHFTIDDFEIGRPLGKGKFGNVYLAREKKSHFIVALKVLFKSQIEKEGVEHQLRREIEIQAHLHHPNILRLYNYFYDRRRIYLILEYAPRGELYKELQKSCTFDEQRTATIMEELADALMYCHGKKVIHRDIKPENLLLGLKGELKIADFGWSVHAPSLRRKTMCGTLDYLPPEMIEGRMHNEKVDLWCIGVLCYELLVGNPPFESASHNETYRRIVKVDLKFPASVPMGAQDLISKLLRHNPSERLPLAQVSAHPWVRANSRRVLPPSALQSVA

[14] = target: T13, AKT2 (Homo sapiens, UniProt P31751); assay: Inhibition specificity, AKT2; assay type: biochemical; conditions: 5000 nM, average of two tests; read-out: Average Inhibition Rate (%) AKT2
T13 construct: purchased INVITROGEN
T13 sequence (P31751 whole entry, species assumed): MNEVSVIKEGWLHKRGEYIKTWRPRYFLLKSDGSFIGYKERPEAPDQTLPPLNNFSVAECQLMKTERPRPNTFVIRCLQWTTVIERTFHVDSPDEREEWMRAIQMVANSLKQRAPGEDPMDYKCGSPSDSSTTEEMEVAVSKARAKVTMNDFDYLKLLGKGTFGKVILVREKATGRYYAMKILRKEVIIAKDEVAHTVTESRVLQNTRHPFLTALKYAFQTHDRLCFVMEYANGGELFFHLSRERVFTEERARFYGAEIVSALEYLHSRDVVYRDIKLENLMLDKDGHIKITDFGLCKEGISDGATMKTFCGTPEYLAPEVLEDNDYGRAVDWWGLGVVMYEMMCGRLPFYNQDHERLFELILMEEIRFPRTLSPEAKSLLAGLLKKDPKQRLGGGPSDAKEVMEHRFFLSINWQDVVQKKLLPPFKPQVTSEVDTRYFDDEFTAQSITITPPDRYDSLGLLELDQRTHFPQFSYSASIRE

[15] = target: T4, PDGFR-β; assay: Inhibition specificity, PDGFR-β; assay type: biochemical; conditions: 5000 nM, average of two tests; read-out: Average Inhibition Rate (%) PDGFR-β
[16] = target: T14, KDR (VEGFR2) (Homo sapiens, UniProt P35968); assay: Inhibition specificity, KDR; assay type: biochemical; conditions: 5000 nM, average of two tests; for inhibition at 5 µM: read-out: Average Inhibition Rate (%) KDR
T14 construct: purchased Invitrogen
T14 sequence (P35968 20-1356, species assumed): as the sequence (P35968 20-1356) above

T1 sequence (P21802 22-821, species assumed): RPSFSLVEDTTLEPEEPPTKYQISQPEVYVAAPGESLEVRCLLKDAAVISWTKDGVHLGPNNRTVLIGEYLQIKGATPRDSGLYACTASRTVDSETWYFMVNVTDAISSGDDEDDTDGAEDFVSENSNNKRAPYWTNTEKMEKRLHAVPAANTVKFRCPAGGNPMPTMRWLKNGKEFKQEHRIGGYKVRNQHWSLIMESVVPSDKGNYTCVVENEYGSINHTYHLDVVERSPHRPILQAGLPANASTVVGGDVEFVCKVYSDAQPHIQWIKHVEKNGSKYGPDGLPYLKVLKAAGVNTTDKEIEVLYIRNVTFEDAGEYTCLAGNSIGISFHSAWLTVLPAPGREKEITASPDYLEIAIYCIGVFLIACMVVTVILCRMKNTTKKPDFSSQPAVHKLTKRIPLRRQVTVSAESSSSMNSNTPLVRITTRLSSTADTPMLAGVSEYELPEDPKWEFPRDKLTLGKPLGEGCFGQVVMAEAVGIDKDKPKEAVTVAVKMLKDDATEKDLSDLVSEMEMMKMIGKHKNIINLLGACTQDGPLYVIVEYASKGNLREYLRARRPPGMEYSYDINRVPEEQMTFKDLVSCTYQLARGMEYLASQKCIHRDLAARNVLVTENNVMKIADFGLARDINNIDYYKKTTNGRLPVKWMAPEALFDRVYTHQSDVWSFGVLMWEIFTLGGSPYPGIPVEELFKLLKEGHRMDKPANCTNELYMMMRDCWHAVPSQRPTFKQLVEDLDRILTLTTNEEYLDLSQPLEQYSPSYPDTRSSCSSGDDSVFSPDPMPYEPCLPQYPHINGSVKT

SMILES	inhibition at 5 µM [1] [%]	inhibition at 5 µM [2] [%]	inhibition at 0.1 µM [3] [%]	inhibition at 1 µM [3] [%]	inhibition at 5 µM [3] [%]	inhibition at 10 µM [3] [%]	inhibition at 20 µM [3] [%]	inhibition at 40 µM [3] [%]	inhibition at 100 µM [3] [%]	inhibition effect on the vessel development of the danio rerio (in words) [3]	inhibition at 5 µM [4] [%]	inhibition activity on PDGFR-β (in words) [5]	IC50 [5] [µM]	Inhibition Rate on PDGFR-β (%) ([5]; concentration 0.0002823 (uM))	Inhibition Rate on PDGFR-β (%) ([5]; concentration 0.0008468 (uM))	Inhibition Rate on PDGFR-β (%) ([5]; concentration 0.0025403 (uM))	Inhibition Rate on PDGFR-β (%) ([5]; concentration 0.0076208 (uM))	Inhibition Rate on PDGFR-β (%) ([5]; concentration 0.0228624 (uM))	Inhibition Rate on PDGFR-β (%) ([5]; concentration 0.0685871 (uM))	Inhibition Rate on PDGFR-β (%) ([5]; concentration 0.2057613 (uM))	further results
Nc1cc(Oc2ccc3c(C(=O)Nc4cccc(C(F)(F)F)c4)cccc3n2)ncn1 [Compound 2-1]	~36	~21	10	50	100	100	100	100	100	have inhibition effect on the vessel development of the danio rerio	3.75	good inhibition activity	1.94	0.72	2.69	0.80	1.43	7.89	10.09	12.85	Inhibition Rate on PDGFR-β (%) ([5]; concentration 0.6172840 (uM)): 23.86%; Inhibition Rate on PDGFR-β (%) ([5]; concentration 1.8518519 (uM)): 46.85%; Inhibition Rate on PDGFR-β (%) ([5]; concentration 5.5555556 (uM)): 73.86%; Inhibition Rate on PDGFR-β (%) ([5]; concentration 16.6666667 (uM)): 86.35%; Inhibition Rate on PDGFR-β (%) ([5]; concentration 50 (uM)): 85.78%; Hill PDGFR-β [5]: 1.09; inhibition at 5 µM [6]: 6.78%; inhibition at 5 µM [7]: 4.11%; inhibition at 5 µM [8]: 1.44%; inhibition of VEGFR2 (in words, FIG. 8) [9]: can inhibit VEGFR2; inhibition at 5 µM [10]: 2.63%; inhibition at 5 µM [11]: -0.57%; inhibition at 5 µM [12]: -0.01%; inhibition at 5 µM [13]: ~31%; inhibition at 5 µM [14]: 1.35%; inhibition at 5 µM [15]: ~71%; inhibition at 5 µM [16]: > 97%
Nc1nccc(Oc2ccc3c(C(=O)Nc4cccc(C(F)(F)F)c4)cccc3n2)n1 [Compound 2-2]	> 61	~65	50	100	100	100	100	100	100	have inhibition effect on the vessel development of the danio rerio	2.02	good inhibition activity	0.15	0.62	0.49	−0.84	2.85	15.13	34.21	55.90	Inhibition Rate on PDGFR-β (%) ([5]; concentration 0.6172840 (uM)): 78.29%; Inhibition Rate on PDGFR-β (%) ([5]; concentration 1.8518519 (uM)): 91.57%; Inhibition Rate on PDGFR-β (%) ([5]; concentration 5.5555556 (uM)): 96.43%; Inhibition Rate on PDGFR-β (%) ([5]; concentration 16.6666667 (uM)): 97.95%; Inhibition Rate on PDGFR-β (%) ([5]; concentration 50 (uM)): 98.80%; Hill PDGFR-β [5]: 0.92; inhibition at 5 µM [6]: -7.1%; inhibition at 5 µM [7]: 37.4%; inhibition at 5 µM [8]: 1.12%; inhibition of VEGFR2 (in words, FIG. 8) [9]: can inhibit VEGFR2; inhibition at 5 µM [10]: 1.39%; inhibition at 5 µM [11]: 0.555%; inhibition at 5 µM [12]: 2.63%; inhibition at 5 µM [13]: 13.6%; inhibition at 5 µM [14]: -1.2%; inhibition at 5 µM [15]: ~97%; Average Inhibition Rate (%) KDR ([16]; 5 µM): 100.1%; inhibition at 5 µM [16]: 100%
